Results reported in ChEMBL document CHEMBL1201862, “PubChem BioAssay data set” (2004).
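Method: 48-hour compound exposure of cells in 96-well plates, five concentrations, linear interpolation of endpoints. GI50 = concentration required for 50% inhibition of growth.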 Activity calls are given as the source filed them. Cut-off read from the data, not from the text of the source: active = GI50 up to about 1.1 µM and inactive = higher.

Assays:
Assay in all cases: growth of human tumour cells (NCI), 48 h
786-0 = system: 786-0
A549 = system: A549
CCRF-CEM = system: CCRF-CEM
EKVX = system: EKVX
HT-29 = system: HT-29
KM12 = system: KM12
MCF7 = system: MCF7
MDA-MB-231 = system: MDA-MB-231
MDA-MB-435 = system: MDA-MB-435
MDA-N = system: MDA-N
NCI/ADR-RES = system: NCI/ADR-RES
PC-3 = system: PC-3
SK-MEL-2 = system: SK-MEL-2
SN12C = system: SN12C
T47D = system: T47D
UACC-257 = system: UACC-257
CAKI-1 = system: CAKI-1
HOP-92 = system: HOP-92
RXF 393 = system: RXF 393

Measured: GI50

COc1ccc(-n2sc3ncc([N+](=O)[O-])cc3c2=O)cc1
inactive: 786-0 > 100 µM | A549 > 100 µM | CCRF-CEM 96.4 µM | EKVX > 100 µM | HT-29 > 100 µM | KM12 > 100 µM | MCF7 > 100 µM | MDA-MB-231 > 100 µM | MDA-MB-435 > 100 µM | MDA-N > 100 µM | NCI/ADR-RES > 100 µM | PC-3 > 100 µM | SK-MEL-2 > 100 µM | SN12C > 100 µM | T47D > 100 µM | UACC-257 > 100 µM

O=C1CC2OCC=C3CN4CCC56c7ccccc7N1C5C2C3CC46O (centres undefined)
inactive: 786-0 > 100 µM | A549 > 100 µM | CAKI-1 97.3 µM | CCRF-CEM > 100 µM | EKVX > 100 µM | HOP-92 > 100 µM | HT-29 > 100 µM | KM12 > 100 µM | MCF7 > 100 µM | MDA-MB-231 > 100 µM | MDA-MB-435 > 100 µM | MDA-N > 100 µM | NCI/ADR-RES > 100 µM | PC-3 > 100 µM | SK-MEL-2 > 100 µM | SN12C > 100 µM | T47D > 100 µM | UACC-257 > 100 µM

[O-][S+](Nc1ccccc1)c1ccc(Cl)c(Cl)c1 (centres undefined)
inactive: 786-0 53.8 µM | A549 28.6 µM | CCRF-CEM > 100 µM | EKVX 47.3 µM | HT-29 > 100 µM | KM12 14.7 µM | MCF7 33.7 µM | MDA-MB-231 40.9 µM | MDA-MB-435 24.2 µM | MDA-N > 100 µM | NCI/ADR-RES 37.5 µM | SK-MEL-2 33.3 µM | SN12C > 100 µM | T47D 10.3 µM | UACC-257 62.2 µM

O=c1oc2ccc3ccccc3c2cc1-c1nc2ccc([N+](=O)[O-])cc2o1
inactive: 786-0 12.4 µM | A549 14.7 µM | CAKI-1 > 44.7 µM | CCRF-CEM 75.2 µM | EKVX 31.3 µM | HOP-92 33.6 µM | HT-29 > 42.7 µM | KM12 > 59.2 µM | MDA-MB-231 43.6 µM | MDA-MB-435 > 58.3 µM | MDA-N > 100 µM | NCI/ADR-RES > 80.5 µM | PC-3 > 100 µM | RXF 393 4.72 µM | SK-MEL-2 > 64.9 µM | SN12C 97.5 µM | T47D 66.8 µM | UACC-257 > 100 µM

COc1c2ccoc2nc2c(OC)c(OCC(O)C(C)(C)O)ccc12 (centres undefined) [EVOXINE]
inactive: 786-0 > 100 µM | A549 > 100 µM | CAKI-1 > 100 µM | CCRF-CEM > 100 µM | EKVX > 100 µM | HOP-92 > 100 µM | HT-29 > 100 µM | KM12 > 100 µM | MCF7 > 100 µM | MDA-MB-231 75.3 µM | MDA-MB-435 > 100 µM | MDA-N > 100 µM | NCI/ADR-RES > 100 µM | PC-3 > 100 µM | SK-MEL-2 > 100 µM | SN12C > 100 µM | T47D > 100 µM | UACC-257 > 100 µM

COC1=C[C@]2(CCC(=O)O2)[C@@H]2Cc3ccccc3[C@H](O)[C@@H]2C1=O
inactive: 786-0 70.5 µM | A549 > 100 µM | CAKI-1 47.6 µM | CCRF-CEM 15.1 µM | EKVX > 100 µM | HOP-92 78.3 µM | HT-29 > 100 µM | KM12 > 100 µM | MCF7 44 µM | MDA-MB-231 34.6 µM | MDA-MB-435 16.9 µM | MDA-N 15.8 µM | NCI/ADR-RES 97.9 µM | PC-3 31.2 µM | SK-MEL-2 28.6 µM | SN12C 47.6 µM | T47D 13.1 µM | UACC-257 22.1 µM

O=C1CCCCC/C1=C\c1ccc(F)cc1
inactive: 786-0 > 100 µM | A549 > 100 µM | CAKI-1 > 100 µM | CCRF-CEM 24.4 µM | EKVX > 100 µM | HOP-92 61.1 µM | HT-29 > 100 µM | KM12 > 100 µM | MDA-MB-231 > 100 µM | MDA-MB-435 74.1 µM | MDA-N > 100 µM | PC-3 > 100 µM | SK-MEL-2 > 100 µM | SN12C > 100 µM | T47D > 100 µM | UACC-257 52.2 µM

C#CC(O)/C=C/C(O)CCCC(O)CC#CC(O)C#CCCCCC(O)/C=C/CCCCCC(=O)CCCCCCCCCCCCCC(O)C(O)C#CC(=O)O (centres undefined)
inactive: 786-0 > 25 µM | A549 > 25 µM | CAKI-1 > 25 µM | CCRF-CEM 6.81 µM | EKVX > 25 µM | HOP-92 > 25 µM | HT-29 > 25 µM | KM12 > 25 µM | MCF7 > 25 µM | MDA-MB-231 > 25 µM | MDA-MB-435 > 25 µM | MDA-N > 25 µM | NCI/ADR-RES > 25 µM | PC-3 > 25 µM | SK-MEL-2 > 25 µM | SN12C > 25 µM | T47D > 25 µM | UACC-257 > 25 µM

CCC(CON(C)c1ccccc1)(SC)SC
inactive: 786-0 > 100 µM | A549 > 100 µM | CAKI-1 > 100 µM | CCRF-CEM > 100 µM | EKVX > 100 µM | HOP-92 > 100 µM | HT-29 > 100 µM | KM12 > 100 µM | MCF7 > 100 µM | MDA-MB-231 > 100 µM | MDA-MB-435 > 100 µM | MDA-N > 100 µM | NCI/ADR-RES > 100 µM | PC-3 > 100 µM | SK-MEL-2 28.7 µM | SN12C > 100 µM | T47D 13.3 µM | UACC-257 > 100 µM

O=C(O)c1cccc(SSc2cccc(C(=O)O)c2)c1
inactive: 786-0 > 100 µM | A549 > 100 µM | CAKI-1 > 100 µM | CCRF-CEM 28.8 µM | EKVX > 100 µM | HOP-92 > 100 µM | HT-29 > 100 µM | KM12 > 100 µM | MDA-MB-231 > 100 µM | MDA-MB-435 > 100 µM | MDA-N > 100 µM | NCI/ADR-RES > 100 µM | PC-3 > 100 µM | RXF 393 > 100 µM | SK-MEL-2 > 100 µM | SN12C > 100 µM | T47D > 100 µM | UACC-257 > 100 µM

OCC1CCCCCCCCCCC12SCCCS2 (centres undefined)
inactive: 786-0 > 100 µM | A549 > 100 µM | CAKI-1 > 100 µM | CCRF-CEM > 100 µM | EKVX > 100 µM | HOP-92 > 100 µM | HT-29 > 100 µM | KM12 > 100 µM | MCF7 > 100 µM | MDA-MB-435 > 100 µM | MDA-N > 100 µM | NCI/ADR-RES > 100 µM | PC-3 71 µM | SK-MEL-2 > 100 µM | T47D 84.3 µM

COc1ccc(N2C(=O)C(=O)C3(CCCCC3)C2=O)c(OC)c1OC
inactive: 786-0 > 100 µM | A549 > 100 µM | CAKI-1 > 100 µM | CCRF-CEM > 100 µM | EKVX > 100 µM | HT-29 > 100 µM | KM12 > 100 µM | MCF7 > 100 µM | MDA-MB-435 > 100 µM | MDA-N > 100 µM | NCI/ADR-RES > 100 µM | PC-3 > 100 µM | RXF 393 > 100 µM | SN12C > 100 µM | T47D > 100 µM | UACC-257 > 100 µM
